Data reported in US20250263459A1, “STABILIZED PACAP PEPTIDE” (SENJU PHARMACEUTICAL CO., LTD., priority 2019, published 2025).
Non-standard residues stand in square brackets, D forms with d. Residues, ends and D or L forms follow the SMILES beside them. ξ: configuration not given here. ξAla(tetrazol-5-yl) = NC(Cc1nnn[nH]1)C(=O)O; Aib = CC(C)(N)C(=O)O

Assays:
[1] = Stability test 1: survival rate of peptide in phosphate buffer (pH 7.0) after storage, HPLC; format: physicochemical; details: 100 μM peptide, 0.1% phosphate buffer pH 7.0, 40° C., 4 weeks (Table 4)
Experimental: The 1.0 mM peptide solutions were then diluted with phosphate buffer to 100 μM. […] The prepared peptide solutions were incubated for one month or 2 months in a 40° C. thermostatic bath to obtain stored samples.
Using the total weight of the aqueous peptide solution and storage vessel as the specimen weight, measurements were recorded as the specimen weights before storage and the specimen weights after storage under different storage conditions. The empty weight of the storage vessel was also measured, and the moisture permeability was determined by the following formula.
After stirring the standard sample and the stored samples with a vortex mixer, each peptide solution was transferred to an HPLC vial (Deactivated Qsert vial by Waters Co.). Reverse-phase HPLC (HPLC system: Prominence by Shimadzu Corp.) was conducted under the conditions shown in Table 3 below for analysis of the peptide solutions, and chromatograms were obtained.
The peak area value for the peptide in the chromatogram was calculated, and the survival rate (survival rate before correction for water) was calculated using formula (2). The survival rate after correction for water was also calculated from the survival rate before correction for water using formula (3) to take into account the permeability of the container.
Peptide solutions prepared by the same method as [Measuring sample preparation 1] for the peptides synthesized in Example 2 (peptides 13 to 16) were incubated for 2 weeks and 8 weeks in a thermostatic bath at 40° C. to obtain stored samples.
Peptide solutions prepared by the same method as [Measuring sample preparation 1] for the peptides synthesized in Example 2 (peptides 17 to 21) were incubated for 4 weeks in a thermostatic bath at 40° C. to obtain stored samples.
A peptide solution prepared by the same method as [Measuring sample preparation 1] for peptide 22 synthesized in Example 2 was incubated for 1 week and 4 weeks in a thermostatic bath at 40° C. to obtain stored samples.

[2] = as above; format: physicochemical; details: 100 μM peptide, 0.1% phosphate buffer pH 7.0, head prints 80° C., 8 weeks (Table 4)

SMILES	survival rate after correction for water, 40° C. 4 week [1] [%]	survival rate after correction for water, 80° C. 8 week [2] [%]
CC[C@H](C)[C@H](NC(=O)CNC(=O)C(Cc1nnn[nH]1)NC(=O)[C@H](CO)NC(=O)[C@@H](N)Cc1c[nH]cn1)C(=O)N[C@@H](Cc1ccccc1)C(=O)N[C@@H](C)C(=O)NC(Cc1nnn[nH]1)C(=O)N[C@@H](C)C(=O)N[C@@H](Cc1ccc(O)cc1)C(=O)N[C@@H](CO)C(=O)N[C@@H](CCCNC(=N)N)C(=O)N[C@@H](Cc1ccc(O)cc1)C(=O)N[C@@H](CCCNC(=N)N)C(=O)N[C@@H](CCCCN)C(=O)N[C@@H](CCC(N)=O)C(=O)N[C@@H](CCSC)C(=O)N[C@@H](C)C(=O)N[C@H](C(=O)N[C@@H](CCCCN)C(=O)N[C@@H](CCCCN)C(=O)N[C@@H](Cc1ccc(O)cc1)C(=O)N[C@@H](CC(C)C)C(=O)N[C@@H](C)C(=O)N[C@@H](C)C(=O)N[C@H](C(=O)N[C@@H](CC(C)C)C(N)=O)C(C)C)C(C)C (stereo partly shown) [Peptide 1, HSTzGI FATzAY SRYRK QMAVK KYLAA VL] (H-HS[ξAla(tetrazol-5-yl)]GIFA[ξAla(tetrazol-5-yl)]AYSRYRKQMAVKKYLAAVL-NH2)	91.1	81.5
CC[C@H](C)[C@H](NC(=O)CNC(=O)C(Cc1nnn[nH]1)NC(=O)[C@H](CO)NC(=O)[C@@H](N)Cc1c[nH]cn1)C(=O)N[C@@H](Cc1ccccc1)C(=O)N[C@@H](C)C(=O)NC(Cc1nnn[nH]1)C(=O)N[C@@H](CO)C(=O)N[C@@H](Cc1ccc(O)cc1)C(=O)N[C@@H](C)C(=O)N[C@@H](CCCNC(=N)N)C(=O)N[C@@H](Cc1ccc(O)cc1)C(=O)N[C@@H](CCCNC(=N)N)C(=O)N[C@@H](CCCCN)C(=O)N[C@@H](CCC(N)=O)C(=O)N[C@@H](CCSC)C(=O)N[C@@H](C)C(=O)N[C@H](C(=O)N[C@@H](CCCCN)C(=O)N[C@@H](CCCCN)C(=O)N[C@@H](Cc1ccc(O)cc1)C(=O)N[C@@H](CC(C)C)C(=O)N[C@@H](C)C(=O)N[C@@H](C)C(=O)N[C@H](C(=O)N[C@@H](CC(C)C)C(N)=O)C(C)C)C(C)C (stereo partly shown) [Peptide 2, HSTzGI FATzSY ARYRK QMAVK KYLAA VL] (H-HS[ξAla(tetrazol-5-yl)]GIFA[ξAla(tetrazol-5-yl)]SYARYRKQMAVKKYLAAVL-NH2)	91.9	83.7
CC[C@H](C)[C@H](NC(=O)CNC(=O)C(Cc1nnn[nH]1)NC(=O)[C@H](CO)NC(=O)[C@@H](N)Cc1c[nH]cn1)C(=O)N[C@@H](Cc1ccccc1)C(=O)N[C@@H](C)C(=O)NC(Cc1nnn[nH]1)C(=O)NC(C)(C)C(=O)N[C@@H](Cc1ccc(O)cc1)C(=O)N[C@@H](CO)C(=O)N[C@@H](CCCNC(=N)N)C(=O)N[C@@H](Cc1ccc(O)cc1)C(=O)N[C@@H](CCCNC(=N)N)C(=O)N[C@@H](CCCCN)C(=O)N[C@@H](CCC(N)=O)C(=O)N[C@@H](CCSC)C(=O)N[C@@H](C)C(=O)N[C@H](C(=O)N[C@@H](CCCCN)C(=O)N[C@@H](CCCCN)C(=O)N[C@@H](Cc1ccc(O)cc1)C(=O)N[C@@H](CC(C)C)C(=O)N[C@@H](C)C(=O)N[C@@H](C)C(=O)N[C@H](C(=O)N[C@@H](CC(C)C)C(N)=O)C(C)C)C(C)C (stereo partly shown) [Peptide 4, HSTzGI FATzAiY SRYRK QMAVK KYLAA VL] (H-HS[ξAla(tetrazol-5-yl)]GIFA[ξAla(tetrazol-5-yl)][Aib]YSRYRKQMAVKKYLAAVL-NH2)	95.4	88.4
CC[C@H](C)[C@H](NC(=O)CNC(=O)C(Cc1nnn[nH]1)NC(=O)[C@H](CO)NC(=O)[C@@H](N)Cc1c[nH]cn1)C(=O)N[C@@H](Cc1ccccc1)C(=O)N[C@@H](C)C(=O)NC(Cc1nnn[nH]1)C(=O)N[C@@H](CO)C(=O)N[C@@H](Cc1ccc(O)cc1)C(=O)NC(C)(C)C(=O)N[C@@H](CCCNC(=N)N)C(=O)N[C@@H](Cc1ccc(O)cc1)C(=O)N[C@@H](CCCNC(=N)N)C(=O)N[C@@H](CCCCN)C(=O)N[C@@H](CCC(N)=O)C(=O)N[C@@H](CCSC)C(=O)N[C@@H](C)C(=O)N[C@H](C(=O)N[C@@H](CCCCN)C(=O)N[C@@H](CCCCN)C(=O)N[C@@H](Cc1ccc(O)cc1)C(=O)N[C@@H](CC(C)C)C(=O)N[C@@H](C)C(=O)N[C@@H](C)C(=O)N[C@H](C(=O)N[C@@H](CC(C)C)C(N)=O)C(C)C)C(C)C (stereo partly shown) [Peptide 5, HSTzGI FATzSY AiRYRK QMAVK KYLAA VL] (H-HS[ξAla(tetrazol-5-yl)]GIFA[ξAla(tetrazol-5-yl)]SY[Aib]RYRKQMAVKKYLAAVL-NH2)	94.4	85.4
CC[C@H](C)[C@H](NC(=O)CNC(=O)C(Cc1nnn[nH]1)NC(=O)[C@H](CO)NC(=O)[C@@H](N)Cc1c[nH]cn1)C(=O)N[C@@H](Cc1ccccc1)C(=O)N[C@@H](C)C(=O)NC(Cc1nnn[nH]1)C(=O)NC(C)(C)C(=O)N[C@@H](Cc1ccc(O)cc1)C(=O)NC(C)(C)C(=O)N[C@@H](CCCNC(=N)N)C(=O)N[C@@H](Cc1ccc(O)cc1)C(=O)N[C@@H](CCCNC(=N)N)C(=O)N[C@@H](CCCCN)C(=O)N[C@@H](CCC(N)=O)C(=O)N[C@@H](CCSC)C(=O)N[C@@H](C)C(=O)N[C@H](C(=O)N[C@@H](CCCCN)C(=O)N[C@@H](CCCCN)C(=O)N[C@@H](Cc1ccc(O)cc1)C(=O)N[C@@H](CC(C)C)C(=O)N[C@@H](C)C(=O)N[C@@H](C)C(=O)N[C@H](C(=O)N[C@@H](CC(C)C)C(N)=O)C(C)C)C(C)C (stereo partly shown) [Peptide 6, HSTzGI FATzAiY AiRYRK QMAVK KYLAA VL] (H-HS[ξAla(tetrazol-5-yl)]GIFA[ξAla(tetrazol-5-yl)][Aib]Y[Aib]RYRKQMAVKKYLAAVL-NH2)	94.0	87.5
CC[C@H](C)[C@H](NC(=O)CNC(=O)C(Cc1nnn[nH]1)NC(=O)[C@H](CO)NC(=O)[C@@H](N)Cc1c[nH]cn1)C(=O)N[C@@H](Cc1ccccc1)C(=O)N[C@H](C(=O)NC(Cc1nnn[nH]1)C(=O)NC(C)(C)C(=O)N[C@@H](Cc1ccc(O)cc1)C(=O)NC(C)(C)C(=O)N[C@@H](CCCNC(=N)N)C(=O)N[C@@H](Cc1ccc(O)cc1)C(=O)N[C@@H](CCCNC(=N)N)C(=O)N[C@@H](CCCCN)C(=O)N[C@@H](CCC(N)=O)C(=O)N[C@@H](CCSC)C(=O)N[C@@H](C)C(=O)N[C@H](C(=O)N[C@@H](CCCCN)C(=O)N[C@@H](CCCCN)C(=O)N[C@@H](Cc1ccc(O)cc1)C(=O)N[C@@H](CC(C)C)C(=O)N[C@@H](C)C(=O)N[C@@H](C)C(=O)N[C@H](C(=O)N[C@@H](CC(C)C)C(N)=O)C(C)C)C(C)C)[C@@H](C)O (stereo partly shown) [Peptide 7, HSTzGI FTTzAiY AiRYRK QMAVK KYLAA VL] (H-HS[ξAla(tetrazol-5-yl)]GIFT[ξAla(tetrazol-5-yl)][Aib]Y[Aib]RYRKQMAVKKYLAAVL-NH2)	91.8	83.5
CC[C@H](C)[C@H](NC(=O)CNC(=O)C(Cc1nnn[nH]1)NC(=O)[C@H](CO)NC(=O)[C@@H](N)Cc1c[nH]cn1)C(=O)N[C@@H](Cc1ccccc1)C(=O)N[C@H](C(=O)NC(Cc1nnn[nH]1)C(=O)N[C@@H](CO)C(=O)N[C@@H](Cc1ccc(O)cc1)C(=O)N[C@@H](CO)C(=O)N[C@@H](CCCNC(=N)N)C(=O)N[C@@H](Cc1ccc(O)cc1)C(=O)N[C@@H](CCCNC(=N)N)C(=O)N[C@@H](CCCCN)C(=O)N[C@@H](CCC(N)=O)C(=O)N[C@@H](CCSC)C(=O)N[C@@H](C)C(=O)N[C@H](C(=O)N[C@@H](CCCCN)C(=O)N[C@@H](CCCCN)C(=O)N[C@@H](Cc1ccc(O)cc1)C(=O)N[C@@H](CC(C)C)C(=O)N[C@@H](C)C(N)=O)C(C)C)[C@@H](C)O (stereo partly shown) [Peptide 8, HSTzGI FTTzSY SRYRK QMAVK KYLA] (H-HS[ξAla(tetrazol-5-yl)]GIFT[ξAla(tetrazol-5-yl)]SYSRYRKQMAVKKYLA-NH2)	95.1	84.1
CC[C@H](C)[C@H](NC(=O)CNC(=O)C(Cc1nnn[nH]1)NC(=O)[C@H](CO)NC(=O)[C@@H](N)Cc1c[nH]cn1)C(=O)N[C@@H](Cc1ccccc1)C(=O)N[C@H](C(=O)NC(Cc1nnn[nH]1)C(=O)N[C@@H](CO)C(=O)N[C@@H](Cc1ccc(O)cc1)C(=O)N[C@@H](CO)C(=O)N[C@@H](CCCNC(=N)N)C(=O)N[C@@H](Cc1ccc(O)cc1)C(=O)N[C@@H](CCCNC(=N)N)C(=O)N[C@@H](CCCCN)C(=O)N[C@@H](CCC(N)=O)C(=O)N[C@@H](CCSC)C(=O)N[C@@H](C)C(=O)N[C@H](C(=O)N[C@@H](CCCCN)C(=O)N[C@@H](CCCCN)C(=O)N[C@@H](Cc1ccc(O)cc1)C(=O)N[C@@H](CC(C)C)C(=O)N[C@@H](C)C(=O)N[C@@H](C)C(=O)N[C@H](C(N)=O)C(C)C)C(C)C)[C@@H](C)O (stereo partly shown) [Peptide 9, HSTzGI FTTzSY SRYRK QMAVK KYLAA V] (H-HS[ξAla(tetrazol-5-yl)]GIFT[ξAla(tetrazol-5-yl)]SYSRYRKQMAVKKYLAAV-NH2)	92.4	83.3
